Assay results reported in patent US10093623B2, “Cyclic amides as MetAP-2 inhibitors” (MERCK PATENT GmbH, priority 2012, dated 2018).

What follows are molecules tested against MetAP-2 (Homo sapiens, UniProt P50579) (assay: MetAP-2 activity measurement (coupled enzymatic reactions, Met-Arg-Ser substrate, dianisidine detection at 450 nm)). Conditions: Inhibition of MetAP-2; read-out: IC50 enzyme.
Assay type: biochemical
Summary of the method: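 Rate read from the linear part of the 450 nm absorbance trace. Dianisidine oxidation by peroxidase reports H2O2 made when amino acid oxidase acts on methionine cleaved from MAS tripeptide, one mol dye per mol Met; extinction coefficient gives molar activity.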

Sequence of MetAP-2 (P50579 whole entry, species assumed): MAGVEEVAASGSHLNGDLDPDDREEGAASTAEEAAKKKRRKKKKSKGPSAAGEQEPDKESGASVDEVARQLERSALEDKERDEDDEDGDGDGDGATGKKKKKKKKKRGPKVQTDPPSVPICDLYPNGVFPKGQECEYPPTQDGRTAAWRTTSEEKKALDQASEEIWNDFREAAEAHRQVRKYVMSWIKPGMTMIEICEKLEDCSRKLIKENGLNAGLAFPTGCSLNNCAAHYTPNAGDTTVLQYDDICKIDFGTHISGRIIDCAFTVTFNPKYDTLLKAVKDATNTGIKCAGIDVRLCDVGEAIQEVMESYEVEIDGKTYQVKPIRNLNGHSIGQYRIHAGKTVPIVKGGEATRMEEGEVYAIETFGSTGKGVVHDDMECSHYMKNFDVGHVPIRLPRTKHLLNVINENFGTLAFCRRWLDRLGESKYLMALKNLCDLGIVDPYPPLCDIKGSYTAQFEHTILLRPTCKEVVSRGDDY

IC50 [nM] | Compound
> 10000 | OC1(CNCc2cc(F)cc(Cl)c2)CCN(c2ccccc2)C1 (stereo not drawn) [A120, 3-[(3-chloro-5-fluorobenzylamino)methyl]-1-phenylpyrrolidin-3-ol]
> 10000 | C/C=C/C(=O)[C@@]1(O)CCN(c2ccccc2)C1=O [A70, (S)-3-((E)-but-2-enoyl)-3-hydroxy-1-phenylpyrrolidin-2-one]
1000 to 10000 | O=C1CCc2cc(N3CCCC(O)(CNCc4cc(F)cc(Cl)c4)C3=O)ccc2N1 (stereo not drawn) [B68, 6-{3-[(3-Chloro-5-fluorobenzylamino)methyl]-3-hydroxy-2-oxopiperidin-1-yl}-3,4-dihydro-1H-quinolin-2-one]
10 to 1000 | CC(=O)Nc1ccc(N2CC[C@](O)(C(=O)NCCc3cc(F)cc(Cl)c3)C2=O)cn1 [A155, N-[2-(3-Chloro-5-fluorophenyl)-ethyl]-(S)-1-(6-acetylamino-pyridin-3-yl)-3-hydroxy-2-oxo-pyrrolidine-3-carboxamide]
1000 to 10000 | CNC(=O)[C@H]1CC[C@H](N2CCC(O)(C(=O)NCc3cc(F)cc(Cl)c3)C2=O)CC1 (stereo partly drawn) [A157, N-(3-Chloro-5-fluorobenzyl)-3-hydroxy-1-(4-methylcarbamoyl-cyclohexyl)-2-oxopyrrolidine-3-carboxamide]
1000 to 10000 | CCN[C@H]1CC[C@H](N2CCC(O)(C(=O)NCc3cc(F)cc(Cl)c3)C2=O)CC1 (stereo partly drawn) [A127, N-(3-Chloro-5-fluorobenzyl)-1-(4-ethylaminocyclohexyl)-3-hydroxy-2-oxopyrrolidine-3-carboxamide]
10 to 1000 | CNC(=O)c1cc2cc(N3CC[C@](O)(C(=O)NCc4cc(F)cc(Cl)c4)C3=O)ccc2[nH]1 [B96, N-Methyl-5-[(S)-3-(3-chloro-5-fluorobenzylcarbamoyl)-3-hydroxy-2-oxopyrrolidin-1-yl]-1H-indole-2-carboxamide]
10 to 1000 | NC(=O)c1ccc(F)c(N2CC[C@](O)(C(=O)NCc3cc(F)cc(Cl)c3)C2=O)c1 [B70, N-(3-Chloro-5-fluorobenzyl)-(S)-1-(5-carbamoyl-2-fluorophenyl)-3-hydroxy-2-oxopyrrolidine-3-carboxamide]
> 10000 | O=C1Nc2ccc(N3CC[C@@](O)(C(=O)NCc4cc(F)cc(Cl)c4)C3=O)cc2C1(F)F [A288, N-(3-Chloro-5-fluorobenzyl)-(R)-1-(3,3-difluoro-2-oxo-2,3-dihydro-1H-indol-5-yl)-3-hydroxy-2-oxopyrrolidine-3-carboxamide]
> 10000 | O=C(NCc1cc(F)cc(Cl)c1)[C@]1(O)CCN(c2ccc(C(F)(F)F)nc2)C1=O [A108, N-(3-Chloro-5-fluorobenzyl)-(R)-3-hydroxy-2-oxo-1-(6-trifluoromethylpyridin-3-yl)-pyrrolidine-3-carboxamide]
10 to 1000 | CNC(=O)c1cc2cc(N3CCC(O)(C(=O)NCc4cc(F)cc(Cl)c4)C3=O)ccc2o1 (stereo not drawn) [A146, N-(3-Chloro-5-fluorobenzyl)-3-hydroxy-1-(2-methylcarbamoyl-benzofuran-5-yl)-2-oxo-pyrrolidine-3-carboxamide]
1000 to 10000 | NC(=O)c1cc(N2CCC(O)(C(=O)NCc3cc(F)cc(Cl)c3)C2=O)cc(C(F)(F)F)c1 (stereo not drawn) [A204, N-(3-Chloro-5-fluorobenzyl)-1-(3-carbamoyl-5-trifluoromethyl-phenyl)-3-hydroxy-2-oxo-pyrrolidine-3-carboxamide]
1000 to 10000 | NC(=O)CCN1CCC(O)(C(=O)NCc2cc(F)cc(Cl)c2)C1=O (stereo not drawn) [A300, N-(3-Chloro-5-fluorobenzyl)-1-(2-carbamoylethyl)-3-hydroxy-2-oxopyrrolidine-3-carboxamide]
10 to 1000 | NNC(=O)c1cc2cc(N3CC[C@](O)(C(=O)NCc4cc(F)cc(Cl)c4)C3=O)ccc2[nH]1 [B134, N-(3-Chloro-5-fluorobenzyl)-(S)-1-(2-hydrazinocarbonyl-1H-indol-5-yl)-3-hydroxy-2-oxo-pyrrolidine-3-carboxamide]
> 10000 | CCN1C[C@@H]2[C@H](C1)[C@H]2N1CCC(O)(C(=O)NCc2cc(F)cc(Cl)c2)C1=O (stereo partly drawn) [A275, N-(3-Chloro-5-fluorobenzyl)-1-((1S,5R,6S)-3-ethyl-3-aza-bicyclo[3.1.0]hex-6-yl)-3-hydroxy-2-oxopyrrolidine-3-carboxamide]
10 to 1000 | O=C1CCc2cc(N3CC[C@](O)(C(=O)NCc4c(F)ccc(Cl)c4F)C3=O)ccc2N1 [A250, N-(3-Chloro-2,6-difluorobenzyl)-(S)-3-hydroxy-2-oxo-1-(2-oxo-1,2,3,4-tetrahydroquinolin-6-yl)-pyrrolidine-3-carboxamide]
10 to 1000 | O=C1CCc2cc(N3CC[C@](O)(C(=O)NCc4cc(F)c(F)cc4F)C3=O)ccc2N1 [A245, N-(2,4,5-Trifluorobenzyl)-(S)-3-hydroxy-2-oxo-1-(2-oxo-1,2,3,4-tetrahydroquinolin-6-yl)-pyrrolidine-3-carboxamide]
10 to 1000 | CNc1ccc(N2CCC(O)(C(=O)NCc3cc(F)cc(Cl)c3)C2=O)cn1 (stereo not drawn) [A116, N-(3-Chloro-5-fluorobenzyl)-3-hydroxy-1-(6-methylamino-pyridin-3-yl)-2-oxopyrrolidine-3-carboxamide]

IC50 [nM] | Compound
1000 to 10000 | O=C(NCc1cc(F)cc(Cl)c1)C1(O)CCN(C[C@H]2CC[C@@H](C(=O)O)CC2)C1=O (stereo partly drawn) [A226, 4-[3-(3-Chloro-5-fluorobenzyl-carbamoyl)-3-hydroxy-2-oxo-pyrrolidin-1-ylmethyl]cyclo-hexanecarboxylic acid]
> 10000 | O=C(c1cccc(N2CC[C@@](O)(C(=O)NCc3cc(F)cc(Cl)c3)C2=O)c1)N1CCCC1 [A83, N-(3-Chloro-5-fluorobenzyl)-(R)-3-hydroxy-2-oxo-1-[3-(pyrrolidine-1-carbonyl)phenyl]pyrrolidine-3-carboxamide]
10 to 1000 | O=C1CCc2cc(N3CCC(O)(C(=O)NCCc4ccccc4F)C3=O)ccc2N1 (stereo not drawn) [A184, N-[2-(2-Fluorophenyl)ethyl]-3-hydroxy-2-oxo-1-(2-oxo-1,2,3,4-tetrahydroquinolin-6-yl)-pyrrolidine-3-carboxamide]
1000 to 10000 | CC(=O)N[C@H]1CC[C@H](N2CCC(O)(C(=O)NCc3cc(F)cc(Cl)c3)C2=O)CC1 (stereo partly drawn) [A122, N-(3-Chloro-5-fluorobenzyl)-1-(4-acetylaminocyclohexyl)-3-hydroxy-2-oxopyrrolidine-3-carboxamide]
1000 to 10000 | O=C(NCc1cc(F)cc(Cl)c1)C1(O)CCN(C[C@H]2CCCO2)C1=O (stereo partly drawn) [A225, N-(3-Chloro-5-fluorobenzyl)-3-hydroxy-2-oxo-1-[(R)-1-(tetrahydrofuran-2-yl)methyl]-pyrrolidine-3-carboxamide]
10 to 1000 | CC(C)(C)OC(=O)N1CCN(C(=O)c2cc3cc(N4CC[C@](O)(C(=O)NCc5cc(F)cc(Cl)c5)C4=O)ccc3[nH]2)CC1 [B123, tert-Butyl 4-{5-[(S)-3-(3-chloro-5-fluorobenzylcarbamoyl)-3-hydroxy-2-oxopyrrolidin-1-yl]-1H-indol-2-carbonyl}-piperazine-1-carboxylate]
> 10000 | O=C(NCc1cccc(F)c1)[C@]1(O)CCCN(CC2CCCCC2)C1=O [A263, N-(3-fluorobenzyl)-(R)-1-cyclohexylmethyl-3-hydroxy-2-oxopiperidine-3-carboxamide]
10 to 1000 | O=C(NCc1cc(F)cc(Cl)c1)[C@@]1(O)CCN(c2cnc3[nH]ncc3c2)C1=O [B75, N-(3-Chloro-5-fluorobenzyl)-(S)-3-hydroxy-2-oxo-1-(1H-pyrazolo[3,4-b]pyridin-5-yl)-pyrrolidine-3-carboxamide]
> 10000 | O=C(O)c1cc2cc(N3CC[C@@](O)(C(=O)NCc4cc(F)cc(Cl)c4)C3=O)ccc2[nH]1 [B85, 5-[(R)-3-(3-Chloro-5-fluorobenzylcarbamoyl)-3-hydroxy-2-oxopyrrolidin-1-yl]-1H-indole-2-carboxylic acid]
10 to 1000 | O=C(NCc1cc(F)cc(Cl)c1)[C@@]1(O)CCN(c2cc(C(F)(F)F)ccc2F)C1=O [B39, N-(3-Chloro-5-fluorobenzyl)-(S)-1-(2-Fluoro-5-trifluoromethyl-phenyl)-3-hydroxy-2-oxo-pyrrolidine-3-carboxamide]
1000 to 10000 | O=C1N(Cc2cccc(F)c2F)CCC[C@@]1(O)CNCc1cccc(F)c1 [B23, (R)-1-(2,3-Difluorobenzyl)-3-[(3-fluorobenzylamino)methyl]-3-hydroxypiperidin-2-one]
1000 to 10000 | CC(NC(=O)C1(O)CCN(c2ccccc2)C1=O)c1cccc(F)c1 (stereo not drawn) [A145, N-[1-(3-Fluorophenyl)ethyl]-3-hydroxy-2-oxo-1-phenyl-pyrrolidine-3-carboxamide]
10 to 1000 | O=C1CCc2cc(N3CCC(O)(C(=O)NCCc4cc(F)cc(F)c4)C3=O)ccc2N1 (stereo not drawn) [A199, N-[2-(3,5-Difluorophenyl)ethyl]-3-hydroxy-2-oxo-1-(2-oxo-1,2,3,4-tetrahydroquinolin-6-yl)-pyrrolidine-3-carboxamide]
10 to 1000 | O=C(NCc1cc(F)cc(Cl)c1)[C@@]1(O)CCN(c2cnc3[nH]cc(C(F)(F)F)c3c2)C1=O [B139, N-(3-Chloro-5-fluorobenzyl)-(S)-3-hydroxy-2-oxo-1-(3-trifluoro-methyl-1H-pyrrolo[2,3-b]pyridin-5-yl)pyrrolidine-3-carboxamide]
10 to 1000 | NC(=O)c1cc2cc(N3CC[C@](O)(C(=O)NCc4cc(F)cc(Cl)c4)C3=O)ccc2[nH]1 [B78, 5-[(S)-3-(3-Chloro-5-fluorobenzylcarbamoyl)-3-hydroxy-2-oxopyrrolidin-1-yl]-1H-indole-2-carboxamide]
1000 to 10000 | O=C1N(c2ccccc2)CCC1(O)CNCc1ccc(F)cc1 (stereo not drawn) [B45, 3-[(4-Fluorobenzylamino)-methyl]-3-hydroxy-1-phenyl-pyrrolidin-2-one]
10 to 1000 | CNC(=O)c1cccc(N2CCC(O)(C(=O)NCc3cc(F)cc(Cl)c3)C2=O)c1 (stereo not drawn) [A133, N-(3-Chloro-5-fluorobenzyl)-3-hydroxy-1-(3-methylcarbamoyl-phenyl)-2-oxopyrrolidine-3-carboxamide]
> 10000 | O=C(NCc1cc(F)cc(Cl)c1)[C@]1(O)CCN(c2cnc3[nH]cc(C(F)(F)F)c3c2)C1=O [B140, N-(3-Chloro-5-fluorobenzyl)-(R)-3-hydroxy-2-oxo-1-(3-trifluoromethyl-1H-pyrrolo-[2,3-b]pyridin-5-yl)pyrrolidine-3-carboxamide]
